Experimental findings from ChEMBL document CHEMBL1201862, “PubChem BioAssay data set” (2004) are described below.

Activity calls are given as the source filed them. For most assays here, no stated cut-off is given here; in the data, actives have a measured EC50 and inactives only a lower limit.

For test [1], the target named is T1, Zinc finger protein mex-5 (Caenorhabditis elegans, UniProt Q9XUB2).
T1 sequence (Q9XUB2 whole entry): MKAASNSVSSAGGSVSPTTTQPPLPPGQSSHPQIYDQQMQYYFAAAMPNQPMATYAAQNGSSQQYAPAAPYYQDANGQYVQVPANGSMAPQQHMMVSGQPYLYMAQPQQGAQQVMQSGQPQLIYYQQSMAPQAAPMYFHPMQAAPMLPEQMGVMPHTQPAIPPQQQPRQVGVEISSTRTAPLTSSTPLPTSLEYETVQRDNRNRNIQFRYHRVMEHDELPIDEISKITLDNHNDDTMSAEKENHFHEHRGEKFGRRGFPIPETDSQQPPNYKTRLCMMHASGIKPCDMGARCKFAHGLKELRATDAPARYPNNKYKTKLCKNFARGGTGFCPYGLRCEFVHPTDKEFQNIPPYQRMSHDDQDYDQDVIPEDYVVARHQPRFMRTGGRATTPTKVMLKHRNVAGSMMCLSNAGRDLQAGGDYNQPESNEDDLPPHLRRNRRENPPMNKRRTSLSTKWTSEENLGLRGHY
In words: potency of MEX-5 RNA-binding blockers – biochemical, C. elegans, fluorescence polarization, dose response (AID 1960).

In test [2] the target is Intestinal-type alkaline phosphatase (Homo sapiens, UniProt P09923). Briefly: inhibition of human intestinal alkaline phosphatase – biochemical, dose response (AID 488876). The format is functional.
Sequence of Intestinal-type alkaline phosphatase (Homo sapiens, UniProt P09923) (P09923 whole entry): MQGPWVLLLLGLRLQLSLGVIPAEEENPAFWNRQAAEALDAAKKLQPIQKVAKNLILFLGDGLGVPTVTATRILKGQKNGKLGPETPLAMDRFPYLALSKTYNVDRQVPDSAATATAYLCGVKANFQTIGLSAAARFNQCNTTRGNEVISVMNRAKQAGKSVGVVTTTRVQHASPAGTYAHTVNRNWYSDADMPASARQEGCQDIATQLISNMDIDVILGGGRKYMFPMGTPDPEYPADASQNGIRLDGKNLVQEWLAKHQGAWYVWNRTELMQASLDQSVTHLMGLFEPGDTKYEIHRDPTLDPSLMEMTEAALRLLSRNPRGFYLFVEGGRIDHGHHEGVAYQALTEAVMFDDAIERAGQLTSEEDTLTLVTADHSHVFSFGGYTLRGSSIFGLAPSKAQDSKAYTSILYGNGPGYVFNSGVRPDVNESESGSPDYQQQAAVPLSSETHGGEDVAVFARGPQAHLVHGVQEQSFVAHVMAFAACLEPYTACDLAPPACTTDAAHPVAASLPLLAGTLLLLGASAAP
Test [3] concerns the target Intestinal-type alkaline phosphatase (Mus musculus, UniProt P24822). In words: PubChem AID 488785. Type of test: functional.
Test [4] concerns the target T2, RNA-binding protein pos-1 (Caenorhabditis elegans, UniProt G5EF15).
T2 sequence (G5EF15 whole entry): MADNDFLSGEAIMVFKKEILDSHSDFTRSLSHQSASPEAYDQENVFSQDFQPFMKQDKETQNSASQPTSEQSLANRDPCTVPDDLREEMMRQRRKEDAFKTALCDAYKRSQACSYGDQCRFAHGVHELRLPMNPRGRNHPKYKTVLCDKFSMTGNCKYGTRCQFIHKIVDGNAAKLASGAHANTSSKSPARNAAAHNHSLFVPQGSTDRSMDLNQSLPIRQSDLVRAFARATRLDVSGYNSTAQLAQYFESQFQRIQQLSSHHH
Briefly: disruptors of C. elegans POS-1 RNA interaction – biochemical, fluorescence polarization, dose response (AID 1964).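 Further: purified POS-1 fused to maltose binding protein made in E. coli; potency of compounds blocking POS-1 binding to fluorescent RNA.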

Test [5] has as its target T3, Alkaline phosphatase, tissue-nonspecific isozyme (Homo sapiens, UniProt P05186).
T3 sequence (P05186 whole entry): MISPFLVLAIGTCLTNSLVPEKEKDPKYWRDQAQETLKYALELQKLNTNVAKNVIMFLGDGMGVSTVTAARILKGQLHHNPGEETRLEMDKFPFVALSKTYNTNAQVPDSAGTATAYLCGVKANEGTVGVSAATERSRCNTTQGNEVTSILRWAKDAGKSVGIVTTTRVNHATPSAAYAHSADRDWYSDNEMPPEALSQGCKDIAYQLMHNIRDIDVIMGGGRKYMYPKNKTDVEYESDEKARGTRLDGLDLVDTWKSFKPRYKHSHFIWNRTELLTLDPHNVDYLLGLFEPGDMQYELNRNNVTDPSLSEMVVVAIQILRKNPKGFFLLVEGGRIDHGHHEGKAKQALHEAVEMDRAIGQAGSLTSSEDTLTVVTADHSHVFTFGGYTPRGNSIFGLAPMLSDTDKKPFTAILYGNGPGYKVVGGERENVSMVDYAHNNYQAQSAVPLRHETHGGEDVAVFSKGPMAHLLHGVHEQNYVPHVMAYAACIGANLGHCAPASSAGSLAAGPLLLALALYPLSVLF
Briefly: TNAP enzyme inhibition by screening hits, dose response, selectivity assay for mouse IAP inhibitor project, biochemical, human TNAP, uHTS hits (AID 488906). The format is functional.

For the next test, the target named is Large T antigen (Simian virus 40, UniProt P03070). The format is functional, Betapolyomavirus macacae.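 Further: Confirmatory-stage PubChem screen for compounds that inhibit SV40 T antigen.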
Sequence of Large T antigen (P03070 whole entry): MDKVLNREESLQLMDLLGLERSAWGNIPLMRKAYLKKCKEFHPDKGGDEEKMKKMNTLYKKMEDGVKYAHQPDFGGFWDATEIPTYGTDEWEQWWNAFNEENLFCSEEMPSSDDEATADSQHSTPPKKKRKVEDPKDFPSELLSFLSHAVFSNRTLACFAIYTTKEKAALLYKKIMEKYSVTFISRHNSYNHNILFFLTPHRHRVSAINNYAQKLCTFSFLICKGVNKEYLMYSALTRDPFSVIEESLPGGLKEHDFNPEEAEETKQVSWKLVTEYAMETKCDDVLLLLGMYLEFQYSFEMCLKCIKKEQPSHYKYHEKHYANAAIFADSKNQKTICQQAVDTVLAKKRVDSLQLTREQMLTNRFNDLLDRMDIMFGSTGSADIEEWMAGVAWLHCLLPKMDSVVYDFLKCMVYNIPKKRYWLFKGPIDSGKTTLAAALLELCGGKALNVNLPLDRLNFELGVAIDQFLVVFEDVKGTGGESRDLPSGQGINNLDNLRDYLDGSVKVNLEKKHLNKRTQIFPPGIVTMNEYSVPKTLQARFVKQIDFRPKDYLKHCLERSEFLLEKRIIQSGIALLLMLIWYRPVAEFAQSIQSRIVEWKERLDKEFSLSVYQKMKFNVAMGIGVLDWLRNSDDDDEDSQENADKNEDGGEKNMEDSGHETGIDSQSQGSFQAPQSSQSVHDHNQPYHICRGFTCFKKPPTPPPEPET
The next test has as its target Nonstructural protein 1 (Influenza A virus, UniProt Q194T2). The format is functional, Influenza A virus (A/California/07/2009(H1N1)).
Test [6] can be described thus: alpha-synuclein stem-loop luciferase translation blockers – H4 neuroglioma cells, luminescence, confirmation (AID 1988). The format is functional, cell-based.
Test [7] concerns BJ. Briefly: BJ-TERT fibroblast viability loss – cell-based, RAS-independent, luminescence, dose response (AID 1933). The format is functional. The following applies: Homo sapiens.
Test [8] deals with BJ. Briefly: growth inhibition of engineered Ras-driven BJ cells – cell-based, alamar blue fluorescence, cherrypicked samples, dose response (AID 2631).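 Further: confirmatory dose-response assay in RAS-dependent BJ fibroblasts engineered with TERT, LT and ST, with cytotoxicity read by fluorescence.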 The format is functional. The following applies: Homo sapiens.
Test [9] in a line: Luminescence Cell-Based Dose Response HTS to Identify Inhibitors of 5'UTR Stem-Loop Driven Prion Protein mRNA Translation in H4 Neuroglioblastoma Cells. [Related pubchem assays: 1827 (Project Summary), 1813 (Primary HTS)]. The format is functional.
The target of test [10] is T4, Replicative DNA helicase DnaB (Mycobacterium tuberculosis, UniProt P9WMR3).
T4 sequence (P9WMR3 whole entry): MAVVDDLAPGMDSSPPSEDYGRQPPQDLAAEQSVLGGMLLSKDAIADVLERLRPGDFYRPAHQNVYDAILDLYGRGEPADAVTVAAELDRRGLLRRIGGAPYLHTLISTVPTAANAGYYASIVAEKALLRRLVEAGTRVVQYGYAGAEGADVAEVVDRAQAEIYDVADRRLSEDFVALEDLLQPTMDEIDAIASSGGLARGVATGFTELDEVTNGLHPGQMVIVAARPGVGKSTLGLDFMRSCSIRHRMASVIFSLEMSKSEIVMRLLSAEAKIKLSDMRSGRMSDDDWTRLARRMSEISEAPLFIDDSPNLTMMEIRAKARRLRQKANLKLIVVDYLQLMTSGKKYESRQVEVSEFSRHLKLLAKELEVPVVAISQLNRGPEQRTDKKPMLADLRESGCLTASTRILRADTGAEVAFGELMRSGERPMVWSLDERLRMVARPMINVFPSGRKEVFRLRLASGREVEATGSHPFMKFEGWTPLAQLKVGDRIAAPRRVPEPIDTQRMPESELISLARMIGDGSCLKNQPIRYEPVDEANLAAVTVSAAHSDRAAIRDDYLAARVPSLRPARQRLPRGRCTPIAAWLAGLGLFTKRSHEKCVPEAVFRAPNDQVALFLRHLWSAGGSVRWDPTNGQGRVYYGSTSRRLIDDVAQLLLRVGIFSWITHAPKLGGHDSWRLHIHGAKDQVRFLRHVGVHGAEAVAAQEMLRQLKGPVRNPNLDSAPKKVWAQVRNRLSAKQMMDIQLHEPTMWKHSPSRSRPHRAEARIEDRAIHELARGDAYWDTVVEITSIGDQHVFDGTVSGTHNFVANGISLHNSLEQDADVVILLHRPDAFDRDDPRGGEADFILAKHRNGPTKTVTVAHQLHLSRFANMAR
In words: DnaB intein splicing inhibitors, dose response, biochemical, cell-free fluorescence (AID 449749). Type of test: functional.

In test [11] the test system is BJ. Briefly: cells. The format is functional, cell-based. The following applies: Homo sapiens.
A short description of test [12]: cells. The format is functional, cell-based.
In the next test the test system is INS1. In words: INS-1E survival protection against cytokine death – cell-based, luminescence, retest, dose response (AID 449756).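 Further: cell death triggered by IL-1 beta plus TNF-alpha plus IFN-gamma mixture; protective hits raise ATP signal compared with cytokine alone wells.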 Type of test: functional. The following applies: Rattus norvegicus, INS1.
Test [13] has as its system Streptococcus sp. 'group A'. In words: Streptococcus pyogenes SK(-)GAS viability under kanamycin – luminescence, BacTiterGlo, confirmation, counter-screen for streptokinase expression inhibitor project, dose response (AID 1900). Type of test: functional, organism-based.
Test [14] addresses Heat shock protein HSP 90-alpha (Homo sapiens, UniProt P07900). Type of test: functional, organism-based.
In another test the target is Exodeoxyribonuclease V (Escherichia coli (strain K12), UniProt P04993+P07648+P08394). Briefly: RecBCD inhibition via phage-restricted bacterial growth – absorbance, V66 E. coli, mutant T4 phage, counter-screen for AddAB inhibitor project, dose response (AID 492957). Type of test: functional, cell-based, Escherichia coli str. K-12 substr. MG1655.
Sequence of Exodeoxyribonuclease V (P04993 whole entry): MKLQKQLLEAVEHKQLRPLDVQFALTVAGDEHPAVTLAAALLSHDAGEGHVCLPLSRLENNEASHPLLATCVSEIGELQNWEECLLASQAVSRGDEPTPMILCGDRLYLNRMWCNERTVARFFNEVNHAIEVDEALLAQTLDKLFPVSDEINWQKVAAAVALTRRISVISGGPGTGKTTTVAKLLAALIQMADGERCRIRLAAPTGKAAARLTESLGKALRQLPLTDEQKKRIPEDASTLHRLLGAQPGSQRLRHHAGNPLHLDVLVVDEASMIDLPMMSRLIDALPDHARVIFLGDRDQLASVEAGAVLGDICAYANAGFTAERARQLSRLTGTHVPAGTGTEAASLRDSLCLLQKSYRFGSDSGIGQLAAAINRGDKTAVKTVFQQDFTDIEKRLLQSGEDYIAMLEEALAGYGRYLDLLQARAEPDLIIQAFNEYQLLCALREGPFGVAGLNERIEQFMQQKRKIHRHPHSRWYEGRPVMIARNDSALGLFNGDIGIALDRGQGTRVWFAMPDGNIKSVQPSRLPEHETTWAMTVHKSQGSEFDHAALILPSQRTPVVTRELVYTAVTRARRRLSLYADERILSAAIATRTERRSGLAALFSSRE
Sequence of Exodeoxyribonuclease V (P07648 whole entry): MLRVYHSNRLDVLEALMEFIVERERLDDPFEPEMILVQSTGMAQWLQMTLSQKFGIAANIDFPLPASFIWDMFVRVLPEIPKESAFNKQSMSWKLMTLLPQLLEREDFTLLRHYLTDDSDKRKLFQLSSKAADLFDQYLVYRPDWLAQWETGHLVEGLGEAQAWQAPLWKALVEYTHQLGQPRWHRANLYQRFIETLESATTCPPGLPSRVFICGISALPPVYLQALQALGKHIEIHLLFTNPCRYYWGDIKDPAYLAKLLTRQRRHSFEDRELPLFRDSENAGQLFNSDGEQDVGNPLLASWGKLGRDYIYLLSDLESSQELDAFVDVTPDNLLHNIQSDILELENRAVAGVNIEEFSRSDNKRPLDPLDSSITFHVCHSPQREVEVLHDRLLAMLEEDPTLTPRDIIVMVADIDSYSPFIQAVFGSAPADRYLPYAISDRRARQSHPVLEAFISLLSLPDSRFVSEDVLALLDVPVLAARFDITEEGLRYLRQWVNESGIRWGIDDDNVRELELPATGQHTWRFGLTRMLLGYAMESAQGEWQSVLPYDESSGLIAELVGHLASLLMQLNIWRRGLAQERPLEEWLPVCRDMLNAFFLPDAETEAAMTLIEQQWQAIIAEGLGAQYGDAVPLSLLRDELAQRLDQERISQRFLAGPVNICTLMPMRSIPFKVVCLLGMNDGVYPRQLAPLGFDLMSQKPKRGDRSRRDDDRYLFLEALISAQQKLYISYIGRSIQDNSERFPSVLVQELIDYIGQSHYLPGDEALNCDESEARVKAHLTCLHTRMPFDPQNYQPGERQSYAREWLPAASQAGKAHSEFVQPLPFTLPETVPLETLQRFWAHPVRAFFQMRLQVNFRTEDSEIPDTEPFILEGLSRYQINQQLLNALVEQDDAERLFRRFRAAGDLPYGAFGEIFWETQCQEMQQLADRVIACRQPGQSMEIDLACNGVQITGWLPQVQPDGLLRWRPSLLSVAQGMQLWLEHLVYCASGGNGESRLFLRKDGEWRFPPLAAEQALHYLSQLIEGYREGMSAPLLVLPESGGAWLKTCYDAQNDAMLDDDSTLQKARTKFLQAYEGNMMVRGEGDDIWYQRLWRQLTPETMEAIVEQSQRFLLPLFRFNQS
Sequence of Exodeoxyribonuclease V (P08394 whole entry): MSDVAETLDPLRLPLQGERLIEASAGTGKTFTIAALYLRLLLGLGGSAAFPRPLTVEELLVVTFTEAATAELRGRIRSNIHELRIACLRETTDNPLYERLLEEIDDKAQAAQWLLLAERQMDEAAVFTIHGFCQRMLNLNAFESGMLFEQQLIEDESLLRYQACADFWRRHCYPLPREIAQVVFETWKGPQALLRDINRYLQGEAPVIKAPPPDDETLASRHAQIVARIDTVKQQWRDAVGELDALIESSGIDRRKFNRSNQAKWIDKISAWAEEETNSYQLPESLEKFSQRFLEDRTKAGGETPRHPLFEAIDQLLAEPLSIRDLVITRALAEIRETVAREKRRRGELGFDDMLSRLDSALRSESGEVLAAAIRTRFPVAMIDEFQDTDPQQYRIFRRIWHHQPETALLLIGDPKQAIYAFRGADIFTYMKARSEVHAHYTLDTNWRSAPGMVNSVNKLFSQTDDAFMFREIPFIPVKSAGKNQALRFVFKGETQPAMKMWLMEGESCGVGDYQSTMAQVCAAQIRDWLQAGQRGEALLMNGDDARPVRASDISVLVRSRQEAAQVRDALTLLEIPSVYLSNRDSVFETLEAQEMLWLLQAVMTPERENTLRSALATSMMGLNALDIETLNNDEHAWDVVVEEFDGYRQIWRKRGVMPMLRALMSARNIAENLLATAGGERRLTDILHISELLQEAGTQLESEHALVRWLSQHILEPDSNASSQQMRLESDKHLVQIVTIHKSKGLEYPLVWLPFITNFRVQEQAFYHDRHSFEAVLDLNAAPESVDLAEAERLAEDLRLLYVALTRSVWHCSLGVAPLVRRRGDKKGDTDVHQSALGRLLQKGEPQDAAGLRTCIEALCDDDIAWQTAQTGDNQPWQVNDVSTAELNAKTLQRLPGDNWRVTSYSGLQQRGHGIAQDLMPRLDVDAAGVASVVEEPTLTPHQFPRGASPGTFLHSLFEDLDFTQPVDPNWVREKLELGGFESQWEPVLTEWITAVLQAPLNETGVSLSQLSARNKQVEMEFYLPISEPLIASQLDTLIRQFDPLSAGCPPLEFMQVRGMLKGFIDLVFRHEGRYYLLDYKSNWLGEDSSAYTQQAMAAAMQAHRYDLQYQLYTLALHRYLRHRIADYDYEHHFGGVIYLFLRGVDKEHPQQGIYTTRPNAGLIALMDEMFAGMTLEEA
Test [15] is described as follows: DRD fibroblast viability loss – cell-based, non-viral oncogenic, luminescence, dose response (AID 1934). The format is functional. The following applies: Homo sapiens.
A further test deals with Streptococcus. In words: GAS UMAA2166 growth inhibition – luminescence, BacTiterGlo, counter-screen for streptokinase expression inhibitor project, dose response (AID 1915).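 Further: potency for reduction of bacterial viability or growth.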 Type of test: functional, organism-based.
Test [16] in a line: Counterscreen for AddAB inhibitors: absorbance-based bacterial cell-based high throughput dose response assay for inhibitors of bacterial viability. [Related pubchem assays (depositor defined):AID435030, AID449728, AID449731, AID488942, AID488955, AID488956]. Type of test: functional.
Test [17] in a line: cells. The format is functional, cell-based. This is another data set of the same source.
A further test deals with T5, Protein RecA (Mycobacterium tuberculosis, UniProt P9WHJ3).
T5 sequence (P9WHJ3 whole entry): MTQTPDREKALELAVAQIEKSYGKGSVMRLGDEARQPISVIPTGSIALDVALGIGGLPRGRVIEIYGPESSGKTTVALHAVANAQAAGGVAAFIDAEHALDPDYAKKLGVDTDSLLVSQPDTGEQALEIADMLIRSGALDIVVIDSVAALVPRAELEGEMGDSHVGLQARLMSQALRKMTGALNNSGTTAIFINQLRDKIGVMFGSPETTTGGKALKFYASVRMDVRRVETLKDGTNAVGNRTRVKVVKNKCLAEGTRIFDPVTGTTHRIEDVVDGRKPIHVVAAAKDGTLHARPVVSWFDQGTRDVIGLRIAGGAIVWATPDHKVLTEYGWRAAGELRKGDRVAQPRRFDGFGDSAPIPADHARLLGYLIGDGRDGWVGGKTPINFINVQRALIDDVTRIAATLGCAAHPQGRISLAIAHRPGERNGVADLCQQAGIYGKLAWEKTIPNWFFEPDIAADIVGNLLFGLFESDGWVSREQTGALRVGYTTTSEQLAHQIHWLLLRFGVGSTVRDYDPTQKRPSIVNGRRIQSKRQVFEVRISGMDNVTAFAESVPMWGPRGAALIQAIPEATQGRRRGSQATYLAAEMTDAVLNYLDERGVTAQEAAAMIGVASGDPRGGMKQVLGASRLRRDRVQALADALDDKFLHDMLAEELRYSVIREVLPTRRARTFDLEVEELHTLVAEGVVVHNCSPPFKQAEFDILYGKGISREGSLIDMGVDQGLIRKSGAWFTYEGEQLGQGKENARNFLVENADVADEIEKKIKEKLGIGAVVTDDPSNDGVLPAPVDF
In words: Fluorescence Cell-Free Homogeneous Dose Retest to Identify Inhibitors of RecA-Intein Splicing Activity. [Related pubchem assays (depositor defined):AID2097, AID2223, AID489010, AID492950]. Type of test: functional.

Test [18] is described as follows: luciferase reporter signal suppression in cells – H4 neuroglioma cells, luminescence, dose response (AID 1990). The format is functional, cell-based.
Test [19] deals with BJ. Briefly: BJ-TERT-LT-ST fibroblast viability loss – cell-based, RAS-independent, luminescence, dose response (AID 1935).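 Further: BJ fibroblasts immortalized with TERT plus LT and ST oncogenes.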 Type of test: functional. Particulars: Homo sapiens.
The target in a further test is T6, Streptokinase A (Streptococcus pyogenes serotype M1, UniProt P10520).
T6 sequence (P10520 whole entry): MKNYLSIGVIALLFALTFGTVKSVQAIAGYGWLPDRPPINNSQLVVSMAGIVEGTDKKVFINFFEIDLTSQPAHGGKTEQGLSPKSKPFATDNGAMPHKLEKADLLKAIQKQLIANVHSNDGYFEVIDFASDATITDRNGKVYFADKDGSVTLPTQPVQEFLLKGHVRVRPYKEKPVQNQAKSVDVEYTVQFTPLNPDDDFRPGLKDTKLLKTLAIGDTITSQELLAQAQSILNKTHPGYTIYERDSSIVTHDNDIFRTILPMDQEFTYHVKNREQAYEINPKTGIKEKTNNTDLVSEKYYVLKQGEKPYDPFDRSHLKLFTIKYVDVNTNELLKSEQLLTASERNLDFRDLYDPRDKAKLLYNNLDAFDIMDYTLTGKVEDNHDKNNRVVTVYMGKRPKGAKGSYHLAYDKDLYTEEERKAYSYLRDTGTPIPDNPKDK
Briefly: viability-normalized secreted streptokinase activity reduction – plasminogen activation absorbance, OD405, dose response (AID 1914).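 Further: secreted streptokinase activity via plasminogen activation per viability signal from cell pellet.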 The format is functional, Streptococcus pyogenes M1 GAS.

Sequence of Intestinal-type alkaline phosphatase (Mus musculus, UniProt P24822) (P24822 whole entry): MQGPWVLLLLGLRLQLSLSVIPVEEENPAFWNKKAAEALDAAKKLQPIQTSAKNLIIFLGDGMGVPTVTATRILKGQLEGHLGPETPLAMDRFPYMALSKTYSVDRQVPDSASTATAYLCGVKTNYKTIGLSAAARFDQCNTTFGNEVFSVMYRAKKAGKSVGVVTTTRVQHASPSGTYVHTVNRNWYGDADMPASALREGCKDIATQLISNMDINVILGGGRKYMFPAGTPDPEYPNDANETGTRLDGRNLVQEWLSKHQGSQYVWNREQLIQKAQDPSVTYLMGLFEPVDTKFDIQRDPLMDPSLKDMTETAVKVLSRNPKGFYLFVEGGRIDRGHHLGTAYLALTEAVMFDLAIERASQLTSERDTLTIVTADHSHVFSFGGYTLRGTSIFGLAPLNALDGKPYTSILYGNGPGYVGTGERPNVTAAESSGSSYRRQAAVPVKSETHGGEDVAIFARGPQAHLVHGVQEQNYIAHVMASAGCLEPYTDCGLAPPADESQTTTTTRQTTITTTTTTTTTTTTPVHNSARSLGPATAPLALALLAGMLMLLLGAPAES
Sequence of Nonstructural protein 1 (Q194T2 whole entry): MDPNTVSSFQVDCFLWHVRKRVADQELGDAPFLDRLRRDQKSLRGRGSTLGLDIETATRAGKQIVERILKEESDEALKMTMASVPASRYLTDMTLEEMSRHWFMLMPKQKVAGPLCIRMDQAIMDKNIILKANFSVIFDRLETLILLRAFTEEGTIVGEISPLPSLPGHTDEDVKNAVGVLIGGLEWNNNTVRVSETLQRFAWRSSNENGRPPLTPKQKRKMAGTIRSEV

Turning to `CCOc1ccc(S(=O)(=O)Nc2cc(Sc3nnc[nH]3)c3oc(=O)sc3c2)cc1`, the EC50 in [1] is 14.6 µM (active); in test [4], 65.8 µM (active). The IC50 in [2] is > 100 µM (inactive); in [3] it was 5.37 µM (active); in test [5], > 100 µM (inactive); at Large T antigen, 20.8 µM (active).

As to `c1ccc(-c2nnc(-c3ccccn3)nc2NC2CCCCC2)cc1`, the half-maximal inhibitory concentration (IC50) at Nonstructural protein 1 was 1.21 µM (active); on Exodeoxyribonuclease V, > 39.5 µM (inactive); in test [16], > 39.5 µM (inactive). For the same molecule, the EC50 is 1.66 µM (inconclusive) in test [6]; 3.21 µM (active) in the test on BJ [7]; 0.585 µM (inconclusive) with BJ [8]; 18.8 µM (active) in test [9]; 4.7 µM (active) in the test on BJ [11]; > 350 µM (not active) in the test “cells [12]”. In addition, the concentration for a half-maximal effect (EC50) in test [13] is 4.44 µM (active); in test [15] it was 4.27 µM (active); with Streptococcus it was 4.21 µM (active); in the test “cells [17]”, 32.6 µM (active); at Protein RecA it was 16.9 µM (active); in [18], 0.513 µM (inconclusive). In addition, the EC50 is 3.31 µM (inconclusive) with BJ [19] and > 50 µM (not active) on Streptokinase A. For the same molecule, the AC50 in test [10] was 9.45 µM (active); in the test on INS1 it was 3.94 µM (active); in test [14] it was 3.99 µM (active).
